According to patent US20260199351A1, “TRIAZOLE COMPOUNDS, PREPARATION METHODS AND MEDICINAL USES THEREOF” (Jiangsu Hengrui Pharmaceuticals Co., Ltd., priority 2022, published 2026):

Experiments:
[1] = target: T1, WRN helicase (His-WRN527-072) (Homo sapiens, UniProt Q14191); experiment: WRN Helicase Assay (fluorescent forked DNA); format: biochemical; settings: 30 min pre-incubation, 60 min reaction at room temperature
T1 construct: in-house produced His-WRN527-072 was used; His (N); made in house
Protocol: To assess the inhibition properties of the invented compounds on WRN helicase activity, a fluorescent assay using forked DNA was set up. In the helicase assay, in-house produced His-WRN527-072 was used. […] 2.5-fold serial dilution of test compounds were prepared for 7 gradient points with DMSO, and then 1.5 μl of each concentration were added to 48.5 μl of assay buffer (25 mM Tris-HCl (pH 8.0), 50 mM NaCl, 2 mM MgCl2, 1 mM DTT, 0.0500 Tween-20, and 2.5 μg/ml BSA) for further dilution. […] Each concentration of the compounds was added as triplicate in the plate. Controls were included in the test to validate the assay. […] Forked DNA and ATP were diluted into 300 nM and 6 mM, respectively, with assay buffer. To initiate the reaction, 5 μl of the dsDNA and ATP solution were added to the assay plate. After 60 minutes room temperature incubation, the plate was transferred to Victor Nivo multimode plate reader (Perkin Elmer, Waltham, MA) and the fluorescence outputs were monitored. GraphPad Prism 9 (GraphPad Software, San Diego, CA) was used to carry out the dose-response curves, deriving IC50s.

[2] = tested on: SW48; experiment: SW48 cell assay; format: cell-based; settings: Homo sapiens
[3] = target: T2, WRN ATPase (Homo sapiens, UniProt Q14191); experiment: WRN ATPase Assay (ADP-Glo); format: biochemical; settings: DNA dependent WRN ATPase activity
T2 construct: in-house produced His-WRN527-072 was used; His (N); made in house
Protocol: WRN ATPase Assay To evaluate the inhibition properties of the invented compounds on DNA dependent WRN ATPase activity, an ATPase assay using ADP-Glo assay kit (Promega, Madison, WI) was established. In the ATPase assay, the same WRN protein and DNA substrate as described in helicase assay were used. The serial dilution of the compounds in DMSO was same as helicase assay. […] All the test wells were set as triplicate. Afterwards, 2.5 μl of assay buffer containing 400 nM DNA substrate and 4 mM ATP were added to each well and incubated for 60 minutes. The protein-free control (maximal inhibition) and no-compound control (no inhibition) were included in the test. To stop the reaction and deplete the excessive ATP, 10 μl of the ADP-Glo™ Reagent from the assay kit were added and incubated for 40 minutes. Then, 20 μl of the ATP detection reagent was added. After 30 minutes incubation, the luminescence was measured using Victor Nivo multimode plate reader (Perkin Elmer, Waltham, MA). Dose-response curves, spanning IC50s, were generated by GraphPad Prism 9 (GraphPad Software, San Diego, CA).

T1 sequence (Q14191 527-1072 limits assumed): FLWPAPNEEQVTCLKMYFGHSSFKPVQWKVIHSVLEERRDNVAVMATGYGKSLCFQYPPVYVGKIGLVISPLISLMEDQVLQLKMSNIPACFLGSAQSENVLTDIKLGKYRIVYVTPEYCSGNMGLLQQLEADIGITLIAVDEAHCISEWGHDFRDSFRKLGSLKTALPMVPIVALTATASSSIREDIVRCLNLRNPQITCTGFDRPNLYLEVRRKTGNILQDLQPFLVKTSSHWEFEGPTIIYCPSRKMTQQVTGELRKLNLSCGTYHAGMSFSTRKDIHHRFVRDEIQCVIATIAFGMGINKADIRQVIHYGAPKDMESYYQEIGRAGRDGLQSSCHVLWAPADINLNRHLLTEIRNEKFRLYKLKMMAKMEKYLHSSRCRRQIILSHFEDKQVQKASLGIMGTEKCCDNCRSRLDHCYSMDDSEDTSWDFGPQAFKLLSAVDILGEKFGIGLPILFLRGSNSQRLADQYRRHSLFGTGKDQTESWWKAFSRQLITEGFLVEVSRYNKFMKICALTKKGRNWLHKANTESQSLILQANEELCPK
T2 sequence (Q14191 527-1072 limits assumed): as above

Structure (SMILES)	IC50 [1] [nM]	IC50 [2] [nM]	IC50 [3] [nM]
CCc1c(N2C3CC2CN(C(=O)c2ncnc(C)c2O)C3)c(=O)n2nc(C3=CCOCC3)nc2n1CC(=O)Nc1ccc(C(F)(F)F)cc1Cl [Compound 1]	48000		
CCc1c(N2CC3CC2CN3C(=O)c2ncnc(C)c2O)c(=O)n2nc(C3=CCOCC3)nc2n1CC(=O)Nc1ccc(C(F)(F)F)cc1Cl (centres unmarked) [Compound 2]	6.4	5740	
CCc1c(N2CC3CCC(C2)N3C(=O)c2ncccc2O)c(=O)n2nc(C3=CCOCC3)nc2n1CC(=O)Nc1ccc(C(F)(F)F)cc1Cl [Compound 4]	4.5	1350	
CCc1c(N2CC3CCC(C2)N3C(=O)c2ncccc2O)c(=O)n2nc(C3=CCOCC3)nc2n1CC(=O)Nc1ccc(C(F)(F)F)nc1Cl [Compound 8]	5.9	1630	
CCc1c(N2CC3CCC(C2)N3C(=O)c2ncnc(C)c2O)c(=O)n2nc(C3=CCOCC3)nc2n1CC(=O)Nc1ccc(C(F)(F)F)nc1Cl [Compound 15]	9.2	3490	
CCc1c(N2[C@@H]3CC[C@H]2CN(C(=O)c2ncnc(C)c2O)C3)c(=O)n2nc(C3=CCOCC3)nc2n1CC(=O)Nc1ccc(C(F)(F)F)cc1C [Compound 17]	3.5	183	
CCc1c(N2CCCN(C(=O)c3ncnc(C)c3O)CC2)c(=O)n2nc(C3=CCOCC3)nc2n1CC(=O)Nc1ccc(C(F)(F)F)cc1Cl [Compound 19]	5.1	818	
CCc1c(N2CCC(NC(=O)c3ncnc(C)c3O)C2)c(=O)n2nc(C3=CCOCC3)nc2n1CC(=O)Nc1ccc(C(F)(F)F)cc1C (centres unmarked) [Compound 23]	6.3	1870	
CCc1c(N2CCN(Cc3cccn(C)c3=O)C(=O)C2)c(=O)n2nc(C3=CCOCC3)nc2n1CC(=O)Nc1ccc(C(F)(F)F)cc1C [Compound 68]	5000		
CCc1c(N2CC3CC(C(=O)c4ncnc(C)c4O)C(C2)N3)c(=O)n2nc(C3=CCOCC3)nc2n1CC(=O)Nc1ccc(C(F)(F)F)cc1Cl (centres unmarked) [Compound 186]	2.7	716	13
CCc1c(N2CC3CC(C2)N3C(=O)c2ncnc(C)c2O)c(=O)n2nc(C3=CCOCC3)nc2n1CC(=O)Nc1ccc(C(F)(F)F)cc1C [Compound 187, 2-(2-(3,6-dihydro-2H-pyran-4-yl)-5-ethyl-6-(6-(5-hydroxy-6-methylpyrimidine-4-carbonyl)-3,6-diazabicyclo[3.1.1]heptan-3-yl)-7-oxo-[1,2,4]triazolo [1,5-a]pyrimidin-4(7H)-yl)-N-(2-methyl-4-(trifluoromethyl)phenyl)acetamide]	8.6	4500	
CCc1c(N2C3CCC2CN(C(=O)c2ncccc2O)C3)c(=O)n2nc(C3=CCOCC3)nc2n1CC(=O)Nc1ccc(C(F)(F)F)cc1Cl [Compound 189, N-(2-chloro-4-(trifluoromethyl)phenyl)-2-(2-(3,6-dihydro-2H-pyran-4-yl)-5-ethyl-6-(3-(3-hydroxypicolinoyl)-3,8-diazabicyclo[3.2.1]octan-8-yl)-7-oxo-[1,2,4]triazolo[1,5-a]pyrimidin-4(7H)-yl)acetamide]	4.6	1110	
CCc1c(C2=CCN(C(=O)c3ncnc(C)c3O)CCC2)c(=O)n2nc(C3=CCOCC3)nc2n1CC(=O)Nc1ccc(C(F)(F)F)cc1Cl [Compound 190, N-(2-chloro-4-(trifluoromethyl)phenyl)-2-(2-(3,6-dihydro-2H-pyran-4-yl)-5-ethyl-6-(1-(5-hydroxy-6-methylpyrimidine-4-carbonyl)-2,5,6,7-tetrahydro-1H-azepin-4-yl)-7-oxo-[1,2,4]triazolo[1,5-a]pyrimidin-4(7H)-yl)acetamide]	5.2	2240	
CCc1c(N2CCN(C(=O)c3ncnc(C)c3O)CC2)c(=O)n2nc(C3C4CC(OC)CC43)nc2n1CC(=O)Nc1ccc(C(F)(F)F)cc1Cl (centres unmarked) [Compound 191, N-(2-chloro-4-(trifluoromethyl)phenyl)-2-(5-ethyl-6-(4-(5-hydroxy-6-methylpyrimidine-4-carbonyl)piperazin-1-yl)-2-(3-methoxybicyclo[3.1.0]hexan-6-yl)-7-oxo-[1,2,4]triazolo[1,5-a]pyrimidin-4(7H)-yl)acetamide]	3.7		
CCc1c(N2CCN(C(=O)c3ncnc(C)c3O)CC2)c(=O)n2nc(C3C4COCC43)nc2n1CC(=O)Nc1ccc(C(F)(F)F)cc1Cl (centres unmarked) [Compound 192, 2-(2-(3-oxabicyclo[3.1.0]hexan-6-yl)-5-ethyl-6-(4-(5-hydroxy-6-methylpyrimidine-4-carbonyl)piperazin-1-yl)-7-oxo-[1,2,4]triazolo[1,5-a]pyrimidin-4(7H)-yl)-N-(2-chloro-4-(trifluoromethyl)phenyl)acetamide]	8.4	4180	
CCc1c(C2=CCN(C(=O)c3ncnc(C)c3O)CCC2)c(=O)n2nc(C3CCOCC3)nc2n1CC(=O)Nc1ccc(C(F)(F)F)cc1Cl [Compound 196, N-(2-chloro-4-(trifluoromethyl)phenyl)-2-(5-ethyl-6-(1-(5-hydroxy-6-methylpyrimidine-4-carbonyl)-2,5,6,7-tetrahydro-1H-azepin-4-yl)-7-oxo-2-(tetrahydro-2H-pyran-4-yl)-[1,2,4]triazolo[1,5-a]pyrimidin-4(7H)-yl)acetamide]	1280		
CCc1c(N2CCN(C(=O)c3ncccc3O)CC2)c(=O)n2nc(C3=CCOCC3)nc2n1CC(=O)Nc1ccc(Cl)c(C(F)(F)F)c1 [Compound 197]	3.8	28	
CCc1c(N2CCN(C(=O)c3ncccc3O)CC2)c(=O)n2nc(C3=CCOCC3)nc2n1CC(=O)Nc1ccc(OC(F)(F)F)cc1 [Compound 198]	2.3	129	
CCc1c(N2CC3CCC(C2)N3C(=O)c2ncccc2O)c(=O)n2nc(C3=CCOCC3)nc2n1CC(=O)Nc1ccc(Cl)c(C(F)(F)F)c1 [Compound 199]	9.3	3350	
CCc1c(N2CC3CCC(C2)N3C(=O)c2ncccc2O)c(=O)n2nc(C3=CCOCC3)nc2n1CC(=O)Nc1ccc(OC(F)(F)F)cc1 [Compound 200]	4.4	7240	
CCc1c(N2CC3CCC(C2)N3C(=O)c2nccc(Cl)c2O)c(=O)n2nc(C3=CCOCC3)nc2n1CC(=O)Nc1ccc(C(F)(F)F)nc1Cl [Compound 201]	7.3	802	
CCc1c(N2CC3CCC(C2)N3C(=O)c2ncccc2O)c(=O)n2nc(C3=CCC(OC)CC3)nc2n1CC(=O)Nc1ccc(C(F)(F)F)cc1C (centres unmarked) [Compound 202, 2-(5-ethyl-6-(8-(3-hydroxypicolinoyl)-3,8-diazabicyclo[3.2.1]octan-3-yl)-2-(4-methoxycyclohex-1-en-1-yl)-7-oxo-[1,2,4]triazolo[1,5-a]pyrimidin-4(7H)-yl)-N-(2-methyl-4-(trifluoromethyl)phenyl)acetamide]	7	1040	
CCc1c(N2CC3CCC(C2)N3C(=O)c2ncccc2O)c(=O)n2nc(C3=CCN(CC(F)F)CC3)nc2n1CC(=O)Nc1ccc(C(F)(F)F)cc1C [Compound 203, 2-(2-(1-(2,2-difluoroethyl)-1,2,3,6-tetrahydropyridin-4-yl)-5-ethyl-6-(8-(3-hydroxypicolinoyl)-3,8-diazabicyclo[3.2.1]octan-3-yl)-7-oxo-[1,2,4]triazolo[1,5-a]pyrimidin-4(7H)-yl)-N-(2-methyl-4-(trifluoromethyl)phenyl)acetamide]	8.7	967	
CCc1c(N2CC3CCC(C2)N3C(=O)c2ncccc2O)c(=O)n2nc(-c3cnn(C)c3)nc2n1CC(=O)Nc1ccc(C(F)(F)F)cc1C [Compound 204]	7.1	1790	
CCc1c(N2CC3CC(F)C(C2)N3C(=O)c2ncccc2O)c(=O)n2nc(C3=CCOCC3)nc2n1CC(=O)Nc1ccc(C(F)(F)F)cc1C (centres unmarked) [Compound 205]	10.9	2370	
CCc1c(N2C3CCC2CN(C(=O)c2ncccc2O)C3)c(=O)n2nc(C3=CCOCC3)nc2n1CC(=O)Nc1ccc(C(F)(F)F)cc1C [Compound 206]	3.6	1140	
CCc1c(N2C3CCC2CN(C(=O)c2ncccc2O)C3)c(=O)n2nc(-c3cnn(C)c3)nc2n1CC(=O)Nc1ccc(C(F)(F)F)cc1C [Compound 207]	5.1	1140	
CCc1c(N2C3CCC2CN(C(=O)c2ncnc(C)c2O)C3)c(=O)n2nc(-c3cnn(C)c3)nc2n1CC(=O)Nc1ccc(C(F)(F)F)cc1C [Compound 208]	6.2	440	
